How the values were obtained:
[1] = test system: NCI-H522 non-small cell lung cancer cells; assay: NCI cell proliferation, NCI-H522; format: cell-based, human
Description: (§1) 3.4. Cell Proliferation Assay
(§2) Selected compounds were tested on a panel of 60 human cancer cell lines at the National Cancer Institute (NCI), Germantown, MD, USA. The cytotoxicity studies were conducted using a 48 h exposure protocol using the sulfo-rhodamine B assay.

SF-295 (CNS Cancer) = assay: NCI one dose, SF-295; format: cell-based, human; settings: SF-295, 1.00E-5 Molar one dose
Description: as §1, §2

UACC-62 (Melanoma) = assay: NCI one dose, UACC-62; format: cell-based, human; settings: UACC-62, 1.00E-5 Molar one dose
Description: as §1, §2

HCT-116 (Colon Cancer) = assay: NCI one dose, HCT-116; format: cell-based, human; settings: HCT-116, 1.00E-5 Molar one dose
Description: as §1, §2

HCT-15 (Colon Cancer) = assay: NCI one dose, HCT-15; format: cell-based, human; settings: HCT-15, 1.00E-5 Molar one dose
Description: as §1, §2

ACHN (Renal Cancer) = assay: NCI one dose, ACHN; format: cell-based, human; settings: 1.00E-5 Molar one dose
Description: as §1, §2

COLO 205 (Colon Cancer) = assay: NCI one dose, COLO 205; format: cell-based, human; settings: COLO 205, 1.00E-5 Molar one dose
Description: as §1, §2

[2] = test system: NCI-H322M (Non-Small Cell Lung Cancer); assay: NCI one dose, NCI-H322M; format: cell-based, human; settings: 1.00E-5 Molar one dose
Description: as §1, §2

[3] = molecular target: human farnesyltransferase (FTase) (Homo sapiens, UniProt P49354+P49356); assay: FTase inhibitory assay (fluorescence, Dansyl-GCVLS); format: biochemical; settings: inhibition of human FTase at 100 μM of tested compound; mean of two experiments
Description: With 40 new products in hand, the determination of their inhibitory activity on human farnesyl-transferase (FTase) in vitro was first undertaken. Dimethyl sulfoxide (DMSO) was used as the negative control, and Chaetomellic acid A was the positive reference in all assays. At the outset, and in order to select only significant results, products with an inhibitory power greater than 60% at an initial screening concentration of 100 µM were retained for the determination of their IC50 and, therefore, for further discussion. Moreover, given the number of products tested, they are grouped into three subfamilies on the basis of the degree of the sulphur atom oxidation (series of sulfides, series of sulfoxides, and series of sulfones), and the results obtained are grouped in Table 1, Table 2 and Table 3.
3.3. FTase Inhibitory Assay
Assays were realized in 96-well plates, prepared with a Biomek NKMC and a Biomek 3000 from Beckman Coulter, and read on a Wallac Victor fluorimeter from PerkinElmer. Per well, 20 µL of farnesyl pyrophosphate (10 μM) was added to 180 µL of a solution containing 2 µL of varied concentrations of potential inhibitors (dissolved in DMSO) and 178 μL of a solution composed of 10 μL of partially purified recombinant human FTase (15 µg mL^−1) and 1.0 µL of Dansyl-GCVLS peptide (in the following buffer: 5.6 mM DTT, 5.6 mM MgCl2, 12 μM ZnCl2 and 0.2% (w/v) octyl-β-D-glucopyranoside, 52 mM Tris/HCl, pH 7.5). Fluorescence was recorded for 15 min (0.7 s per well, 20 repeats) at 30 °C with an excitation filter at 340 nm and an emission filter of 486 nm. Each measurement was reproduced twice, in duplicate. The kinetic experiments were realized under the same conditions, either with FPP as varied substrate with a constant concentration of Dns-GCVLS of 2.5 μM or with Dns-GCVLS as varied substrate with a constant concentration of FPP of 10 μM. Non-linear regressions were performed using the Excel software.

SNB-19 (CNS Cancer) = assay: NCI one dose, SNB-19; format: cell-based, human; settings: SNB-19, 1.00E-5 Molar one dose
Description: as §1, §2

[4] = test system: MDA-MB-468 breast cancer cells; assay: NCI one dose, MDA-MB-468; format: cell-based, human; settings: MDA-MB-468, 1.00E-5 Molar one dose
Description: as §1, §2

HT29 (Colon Cancer) = assay: NCI one dose, HT29; format: cell-based, human; settings: HT29, 1.00E-5 Molar one dose
Description: as §1, §2

[5] = test system: HOP-62 (Non-Small Cell Lung Cancer); assay: NCI one dose, HOP-62; format: cell-based, human; settings: HOP-62, 1.00E-5 Molar one dose
Description: as §1, §2

LOX IMVI (Melanoma) = assay: NCI one dose, LOX IMVI; format: cell-based, human; settings: 1.00E-5 Molar one dose
Description: as §1, §2

SK-OV-3 (Ovarian Cancer) = assay: NCI one dose, SK-OV-3; format: cell-based, human; settings: SK-OV-3, 1.00E-5 Molar one dose
Description: as §1, §2

MCF7 (Breast Cancer) = assay: NCI one dose, MCF7; format: cell-based, human; settings: MCF7, 1.00E-5 Molar one dose
Description: as §1, §2

SNB-75 (CNS Cancer) = assay: NCI one dose, SNB-75; format: cell-based, human; settings: SNB-75, 1.00E-5 Molar one dose
Description: as §1, §2

[6] = test system: EKVX (Non-Small Cell Lung Cancer); assay: NCI one dose, EKVX; format: cell-based, human; settings: 1.00E-5 Molar one dose
Description: as §1, §2

CCRF-CEM (Leukemia) = assay: NCI one dose, CCRF-CEM; format: cell-based, human; settings: 1.00E-5 Molar one dose
Description: as §1, §2

HS 578T (Breast Cancer) = assay: NCI one dose, HS 578T; format: cell-based, human; settings: 1.00E-5 Molar one dose
Description: as §1, §2

OVCAR-3 (Ovarian Cancer) = assay: NCI one dose, OVCAR-3; format: cell-based, human; settings: OVCAR-3, 1.00E-5 Molar one dose
Description: as §1, §2

OVCAR-5 (Ovarian Cancer) = assay: NCI one dose, OVCAR-5; format: cell-based, human; settings: OVCAR-5, 1.00E-5 Molar one dose
Description: as §1, §2

BT-549 (Breast Cancer) = assay: NCI one dose, BT-549; format: cell-based, human; settings: BT-549, 1.00E-5 Molar one dose
Description: as §1, §2

SK-MEL-2 (Melanoma) = assay: NCI one dose, SK-MEL-2; format: cell-based, human; settings: SK-MEL-2, 1.00E-5 Molar one dose
Description: as §1, §2

SK-MEL-28 (Melanoma) = assay: NCI one dose, SK-MEL-28; format: cell-based, human; settings: SK-MEL-28, 1.00E-5 Molar one dose
Description: as §1, §2

UACC-257 melanoma cells = assay: NCI one dose, UACC-257; format: cell-based, human; settings: UACC-257, 1.00E-5 Molar one dose
Description: as §1, §2

[7] = test system: HOP-92 (Non-Small Cell Lung Cancer); assay: NCI one dose, HOP-92; format: cell-based, human; settings: HOP-92, 1.00E-5 Molar one dose
Description: as §1, §2

COc1cccc(CNC(=O)[C@@H]2CS[C@H]3c4ccccc4C(=O)N23)c1 [4aE]
inhibition at 10 µM ([1]; Homo sapiens, NCI-H522, 10 µM, read-out: % Cancer cell growth Inhibition (NCI-H522)): 26%
Growth Percent ([1]; NCI-H522, 1.00E-5 Molar one dose): 74.09%
Growth Percent (SF-295 (CNS Cancer)): 99.74%
Growth Percent (UACC-62 (Melanoma)): 102.11%
Growth Percent (HCT-116 (Colon Cancer)): 102.32%
Growth Percent (HCT-15 (Colon Cancer)): 105.05%
Growth Percent (ACHN (Renal Cancer)): 110.85%
Growth Percent (COLO 205 (Colon Cancer)): 112.81%
Growth Percent [2]: 105.81%
% FTI [3]: 35%
Growth Percent (SNB-19 (CNS Cancer)): 104.75%
Growth Percent [4]: 106.71%
Growth Percent (HT29 (Colon Cancer)): 89.79%
Growth Percent [5]: 96.82%
Growth Percent (LOX IMVI (Melanoma)): 102.67%
Growth Percent (SK-OV-3 (Ovarian Cancer)): 110.57%
Growth Percent (MCF7 (Breast Cancer)): 98.52%
Growth Percent (SNB-75 (CNS Cancer)): 100.11%
Growth Percent [6]: 111.45%
Growth Percent (CCRF-CEM (Leukemia)): 102.31%
Growth Percent (HS 578T (Breast Cancer)): 98.68%
Growth Percent (OVCAR-3 (Ovarian Cancer)): 104.00%
Growth Percent (OVCAR-5 (Ovarian Cancer)): 113.91%
Growth Percent (BT-549 (Breast Cancer)): 110.89%
Growth Percent (SK-MEL-2 (Melanoma)): 95.73%
Growth Percent (SK-MEL-28 (Melanoma)): 113.63%
Growth Percent (UACC-257 melanoma cells): 93.82%
Growth Percent [7]: 99.32%

From publication PMC11855478, “Bicyclic N,S-Acetals Containing Fused Cysteine-Amide System as New Heterocyclic Class Targeting Human Farnesyltransferase (FTase-h)” (International Journal of Molecular Sciences, 2025)
